Results from paper PMC5799700, “Screening for PPAR Non-Agonist Ligands Followed by Characterization of a Hit, AM-879, with Additional No-Adipogenic and cdk5-Mediated Phosphorylation Inhibition Properties” (Frontiers in Endocrinology, 2018).
“Also recorded” adds a separate entry of the source.

What was measured:
[1] = test system: PPARγ target genes in 3T3-L1 cells; assay: Gene expression analysis (RT-qPCR) in differentiated 3T3-L1 cells; assay type: cell-based; settings: 1 μM ligand, vs DMSO
Description: Total RNA from differentiated 3T3-L1 cells was extracted by RNeasy kit (Qiagen) and cDNAs were synthesized with High-Capacity cDNA Reverse Transcription Kit (ThermoFischer Scientific). Quantitative PCR reactions were performed with SYBR Real Time PCR master mixes (ThermoFischer Scientific) and 50 ng of cDNA, in a 7500 Real Time PCR system (Applied Biosystems). Relative mRNA expression was determined by the ΔΔ-Ct method normalized to GAPDH levels. The sequences of primers used in this study are presented in Table S2 in Supplementary Material.

[2] = biological target: T1, CDK5-mediated phosphorylation of PPARγ at serine 273 (Homo sapiens, UniProt P37231); assay: In vitro phosphorylation assay (ADP-Glo); assay type: biochemical; settings: PPARγ LBD 1.2 μM, 5 M excess of ligand, 50 ng CDK5/p35, ATP 10 μM, 1 h
T1 construct: construction (isoform PPARγ1), encoding AAs 207–477, inserted in pET 28a (+); host or cells: Escherichia coli BL21 (DE3) for PPARγ LBD
T1 sequence (P37231 207-477 isoform P37231-2): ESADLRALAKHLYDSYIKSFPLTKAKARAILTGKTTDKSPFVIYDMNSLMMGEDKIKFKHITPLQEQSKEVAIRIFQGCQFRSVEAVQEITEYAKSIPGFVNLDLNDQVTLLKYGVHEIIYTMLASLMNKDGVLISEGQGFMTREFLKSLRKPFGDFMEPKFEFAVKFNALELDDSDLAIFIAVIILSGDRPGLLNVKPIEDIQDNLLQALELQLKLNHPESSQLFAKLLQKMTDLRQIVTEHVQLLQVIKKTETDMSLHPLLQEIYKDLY
Description: Then, protein and ligands were incubated with 50 ng CDK5/p35 (Sigma), for 1 h, at room temperature, in the CDK5/p35 reaction buffer (composition recommended by manufacturer) and in the presence of ATP 10 μM. After reaction, ADP detection was performed by using ADP-Glo™ kinase assay (Promega) following manufacturer’s instructions. Luminesce signal was recorded using GloMax-Multi + Detection System (Promega) microplate luminometer.

PPARγ LBD [3] = biological target: T2, PPARγ LBD (Homo sapiens, UniProt P37231); assay: ANS fluorescence quenching ligand-binding assay; settings: PPARγ 1 μM, ANS 10 μM, ligand 0.1-60 μM, Hill model, 25°C; read-out: Kd (dissociation constant) from ANS displacement
T2 construct: construction (isoform PPARγ1), encoding AAs 207–477, inserted in pET 28a (+); made in house; host or cells: Escherichia coli BL21 (DE3)
T2 sequence (P37231 207-477 isoform P37231-2): T1 sequence (P37231 207-477 isoform P37231-2)
Description: 8-Anilino-1-naphthalenesulfonic acid fluorescence quenching assay was performed incubating 1 μM of PPARγ with 10 μM of the fluorescent probe ANS for 30 min. Following this, increasing concentrations (0.1–60 μM) of the pre-selected 20 compounds were titrated in protein-ANS solution. […] Fluorescence data were fitted to binding curves using Hill model for dissociation constant (Kd) calculation. All experiments were performed in triplicates and data were processed using the software Origin Pro 8.1.

PPARγ LBD [4] = biological target: T2, PPARγ LBD; assay: Thermal shift assay (TSA), SYPRO Orange; assay type: binding; settings: PPARγ 4 μM, threefold ligand excess (12 μM)
Description: Protein thermal unfolding was monitored by measuring the SYPRO® Orange probe (Life technologies) fluorescence. […] Rosi was used as a PPARγ full agonist control and, dimethyl sulfoxide (DMSO), as apo-PPARγ control. TSA was performed in triplicates, in 96-well PCR microplates (Applied Biosystems—Life Technologies), through an RT-PCR device (7500 Real Time PCR System). Samples were heated at 1°C per min, from 10 to 90°C. Fluorescence intensities were plotted as a function of temperature and, the melting temperature (Tm) of the protein unfolding transition was obtained through a Boltzmann model in Origin Pro 8.1 and using an Excel based worksheet (DSF Analysis v3.0.2, ftp://ftp.sgc.ox.ac.uk/pub/biophysics).

PPARγ LBD [5] = biological target: T2, PPARγ LBD; assay: NanoDSF, intrinsic tryptophan and tyrosine fluorescence; assay type: binding; settings: PPARγ 25 μM, ligand 75 μM (3 M excess)
Description: Intrinsic tryptophan and tyrosine fluorescence were measured using NT48 device (NanoTemper), as a more sensitive technology to check protein stability in comparison to TSA. […] The initial fluorescence scan of loaded capillaries was performed at 20°C, monitoring emission wavelength at 330 and 350 nm in order to find the optimal signal range. After this step, samples were subjected to a temperature ramp of 1°C/min from 20 to 90°C and fluorescence was constantly monitored. Data were analyzed and Tm was determined using PR. ThermControl software (NanoTemper).

PPARγ [6] = biological target: T3, PPARγ (Homo sapiens, UniProt P37231); assay: Cell transactivation assay, GAL4-PPARγ-LBD reporter gene; assay type: cell-based; settings: 293T cells, up to 0.1 mM
T3 construct: a chimeric protein composed by GAL4-DBD and PPARγ-LBD; expressed in transfected cells; host or cells: 293T (ATCC CRL-3216)
T3 sequence (P37231 238-503 limits assumed): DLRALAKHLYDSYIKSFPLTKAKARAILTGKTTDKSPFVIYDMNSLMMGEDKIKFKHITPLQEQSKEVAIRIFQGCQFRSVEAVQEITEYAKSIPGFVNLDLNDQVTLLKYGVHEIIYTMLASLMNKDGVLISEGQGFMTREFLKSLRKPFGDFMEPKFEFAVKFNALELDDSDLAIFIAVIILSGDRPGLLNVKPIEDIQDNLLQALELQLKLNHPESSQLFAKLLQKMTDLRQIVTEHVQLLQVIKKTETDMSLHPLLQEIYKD
Description: (§1) For transactivation assays, cells were seeded in 24-well plates (density of 2.0 × 10^5 cells/well), and transiently transfected with Lipofectamine® 2000 (Invitrogen) and 0.5 μg of the following plasmids: pRL-TK, a transfection control, which express Renilla reniformis luciferase constitutively; pGRE-LUC, which contains responsive element for GAL4 protein followed by reporter gene of firefly luciferase; pBIND-PPARγ, a chimeric protein composed by GAL4-DBD and PPARγ-LBD, under control of the cytomegalovirus promoter (CMV), in a proportion of 1.5 μg DNA:2 μL of Lipofectamine. As negative control, empty BlueScript plasmid was used instead of pBIND-PPARγ. For isotype specificity transactivation assay, cells were seeded in 96-well plates (density of 4.0 × 10^4 cells/well) and transfected with pRL-TK; pGRE-LUC and pBIND-PPARα; and pBIND-PPARβ.
(§2) Four hours after transfection, the culture medium was exchanged to DMEM plus 10% FBS Charcoal stripped broth and 1 μM of each tested compound, Rosi or 1% DMSO was added to each well. In dose–response experiments, concentration of compounds was increased from 0.01 to 0.1 mM. After 24 h of treatment, reporter gene expression was measured with Dual-Luciferase® Reporter (DLR™) Assay System (Promega), according to manufacturer’s instructions in a GloMax-Multi + Detection System (Promega). […]

PPARα = biological target: T4, PPARα (Homo sapiens, UniProt Q07869); assay: Isotype specificity transactivation assay, GAL4-PPARα-LBD reporter gene; assay type: cell-based; settings: 293T cells, ligands 1 μM, compared with full agonist
T4 construct: using a GAL4-PPARα-LBD (A) or GAL4-PPARβ-LBD (B) reporter gene; expressed in transfected cells; host or cells: HEK 293T
T4 sequence (Q07869 239-466 limits assumed): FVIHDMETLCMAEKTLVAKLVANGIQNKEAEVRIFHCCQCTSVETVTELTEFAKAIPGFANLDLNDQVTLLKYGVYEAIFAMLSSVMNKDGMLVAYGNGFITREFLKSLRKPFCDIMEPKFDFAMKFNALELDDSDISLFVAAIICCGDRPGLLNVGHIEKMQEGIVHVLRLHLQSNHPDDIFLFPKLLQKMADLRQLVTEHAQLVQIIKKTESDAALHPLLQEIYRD
Description: as §1, with “293T (ATCC® CRL-3216™) cells were cultured in Dulbecco’s Modified Eagle’s Medium (DMEM, Gibco®) supplemented with 10% (v/v) fetal bovine serum, 50 U/mL penicillin, and […] streptomycin, at 37°C, and humidified atmosphere of 5% CO2. For” for “For”, “For isotype specificity transactivation assay, cells were seeded in 96-well plates (density of 4.0 × 10^4 cells/well) and transfected with pRL-TK; pGRE-LUC and pBIND-PPARα; and pBIND-PPARβ.” left out
as §2, with “In dose–response experiments, concentration of compounds was increased from 0.01 to 0.1 mM.” left out

PPARγ [7] = biological target: T3, PPARγ; set-up: method as in PMID 24075729; settings: cited from earlier work
3T3-L1 cells = assay: Adipocyte differentiation assay, Oil Red O; assay type: cell-based; settings: 1 μM ligand; for Adipocyte differentiation / adipogenesis (in words): Oil Red O staining
Description: 3T3-L1 (ATCC® CRL-3242™) cells were cultured in DMEM (Gibco®) supplemented with 10% (v/v) fetal bovine serum, 50 U/mL penicillin, and […] streptomycin, at 37°C, and humidified atmosphere of 5% CO2. After achieved 70% confluency, cells were trypsinized and seeded in 6-well plates (Corning) at a density of 2.8 × 10^5 cells/well. After 2 days, cells were treated with dexamethasone ([…]) to induce preadipocytes differentiation, and 1 μM of Rosi, 1 μM of AM-879, or 1% DMSO. After treatment, the culture medium was exchanged every 48 h, supplemented with 1 μM of each ligand, for 6 days. In order to measure adipocyte differentiation, fully differentiated 3T3-L1 cells were washed with phosphate-buffered saline (PBS), fixed with 10% formalin (v/v) for 1 h, and then, stained with oil red solution (Oil Red O) (0.3% in isopropanol 60%) for 20 min. After staining, cells were washed with PBS and photographed in Nikon MTS microscope (Nikon). Lipid accumulation was also quantified by Oil Red O absorbance measurement at 520 nm. For this measurement, cells lysis was performed in 200 μL of isopropanol and 4% Igepal solution, and the absorbance of the samples was recorded in a 10-mm cuvette in a spectrophotometer (V-530, Jasco). Data were compared using unpaired t-test.

PPARβ = biological target: T5, PPARβ (Homo sapiens, UniProt Q03181); assay: Isotype specificity transactivation assay, GAL4-PPARβ-LBD reporter gene; assay type: cell-based; settings: 293T cells, ligands 1 μM, compared with full agonist
T5 construct: using a GAL4-PPARα-LBD (A) or GAL4-PPARβ-LBD (B) reporter gene; expressed in transfected cells; host or cells: HEK 293T
T5 sequence (Q03181 211-439 limits assumed): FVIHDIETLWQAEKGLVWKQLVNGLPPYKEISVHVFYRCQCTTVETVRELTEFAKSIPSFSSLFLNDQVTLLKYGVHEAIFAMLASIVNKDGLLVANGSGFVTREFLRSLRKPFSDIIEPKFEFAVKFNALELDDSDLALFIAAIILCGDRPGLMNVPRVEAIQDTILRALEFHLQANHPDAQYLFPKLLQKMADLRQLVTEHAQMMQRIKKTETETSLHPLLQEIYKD
Description: as §1, with “293T (ATCC® CRL-3216™) cells were cultured in Dulbecco’s Modified Eagle’s Medium (DMEM, Gibco®) supplemented with 10% (v/v) fetal bovine serum, 50 U/mL penicillin, and […] streptomycin, at 37°C, and humidified atmosphere of 5% CO2. For” for “For”, “For isotype specificity transactivation assay, cells were seeded in 96-well plates (density of 4.0 × 10^4 cells/well) and transfected with pRL-TK; pGRE-LUC and pBIND-PPARα; and pBIND-PPARβ.” left out
as §2, with “In dose–response experiments, concentration of compounds was increased from 0.01 to 0.1 mM.” left out

O=C(O)c1ccc(COc2ccccc2C=C2C(=O)c3ccccc3C2=O)cc1 [AM-879, 4-({2-[(1,3-dioxo-1,3-dihydro-2H-inden-2-ylidene)methyl]phenoxy}methyl) benzoic acid]
Adipoq (Adiponectin) relative expression [1]: slightly reduced levels | Cd36 relative expression [1]: slightly reduced levels | Cebpa relative expression [1]: did not alter | Cfd (Adipsin) relative expression [1]: slightly reduced levels | Lep (Leptin) relative expression [1]: did not alter | Lpl relative expression [1]: did not alter | Pparg relative expression [1]: did not alter | Decrease of CDK5-mediated phosphorylation of PPARγ (Ser 273) [2]: 28% | Kd (PPARγ LBD [3]): 4.5 ± 0.6 µM | Tm from TSA (PPARγ LBD [4]): 49.83 ± 0.01 °C | Tm from nanoDSF (PPARγ LBD [5]): 48.8 ± 0.114 °C | PPARγ activation (dose-response, in words) (PPARγ [6]): did not activate PPARγ even at the highest concentration; also recorded: did not present any significant change in PPARγ activation | PPARα activation (PPARα): none of them activated | Effect on PPARγ activation (earlier description as possible antagonist) (PPARγ [7]): reduced the activation of the receptor | Lipid accumulation (Oil Red O absorbance at 520 nm) in comparison with DMSO (3T3-L1 cells; 6 days): 1.12 ± 0.13 fold | Adipocyte differentiation / adipogenesis (in words) (3T3-L1 cells): did not induce a significant increase in adipocyte differentiation | PPARβ activation (PPARβ): none of them activated

O=C(O)c1ccc(/C=C/C(=O)c2ccc3ccccc3c2)cc1 [P11]
Kd (PPARγ LBD [3]): 3.3 ± 0.7 µM | Tm from TSA (PPARγ LBD [4]): 49.4 ± 0.1 °C | Tm from nanoDSF (PPARγ LBD [5]): 48.0 ± 0.172 °C | PPARγ activation (dose-response, in words) (PPARγ [6]): did not activate PPARγ even at the highest concentration; also recorded: did not present any significant change in PPARγ activation | PPARα activation (PPARα): none of them activated | PPARβ activation (PPARβ): none of them activated

CN(CCOc1ccc(CC2SC(=O)NC2=O)cc1)c1ccccn1 (stereo not drawn) [Rosiglitazone, rosiglitazone, reference compound]
Adipocyte differentiation / adipogenesis (in words) (3T3-L1 cells): strongly induced adipogenesis
